Drawing on US20170283440A1, “CARM1 INHIBITORS AND USES THEREOF” (Epizyme, Inc., priority 2014, published 2017), this text covers IC50 for 39 compounds.

The structures appear in SMILES notation. Where only a bound is given, the exact number is not on record here.

One experiment has as its target T1, Human CARM1 (PRMT4) (Homo sapiens, UniProt Q86X55).
T1 construct: Flag-CARM1-His was eluted with 200 ug/ml FLAG peptide in buffer A; made in house; host or cells: HEK 293F cells infected with recombinant baculovirus (pFastBacMam)
The experiment is described as follows: CARM1 enzyme assay on peptide substrate (3H-SAM Flashplate). The experiment is classed as biochemical. Particulars: CARM1 0.25 nM, 3H-SAM 30 nM, peptide 250 nM; read-out: Biochem IC50. The text has this:
S-adenosylmethionine (SAM), S-adenosylhomocysteine (SAH), bicine, Tween20, dimethylsulfoxide (DMSO), bovine skin gelatin (BSG), sodium butyrate and Tris(2-carboxyethyl)phosphine hydrochloride solution (TCEP) were purchased from Sigma-Aldrich at the highest level of purity possible. ^3H-SAM was purchase from American Radiolabeled Chemicals with a specific activity of 80 Ci/mmol. 384-well streptavidin Flashplates were purchased from PerkinElmer.
Peptide representative of human histone H3 residues 16-30 was synthesized with an N-terminal linker-affinity tag motif and a C-terminal amide cap by 21st Century Biochemicals. The peptide was purified by high-performance liquid chromatography (HPLC) to greater than 95% purity and confirmed by liquid chromatography mass spectrometry (LC-MS). The sequence was Biot-Ahx-[…]-amide and contained a monomethylated arginine at position 26 (SEQ ID NO.:1).
Human CARM1 (PRMT4) (NM_199141.1) transcript clone was amplified from an HEK 293 cDNA library, incorporating a flanking 5′ sequence encoding a FLAG tag ([…]) (SEQ ID NO.:2) fused directly to Ala 2 of CARM1 and 3′ sequence encoding a hexa His sequence ([…]) (SEQ ID NO.:3) fused directly to Ser 608. The gene sequence encoding isoform1 containing a deletion of amino acids 539-561 was amplified subsequently and subcloned into pFastBacMam (Viva Biotech).
Recombinant baculovirus were generated according to Bac-to-Bac kit instructions (Life Technologies). Protein over-expression was accomplished by infecting exponentially growing HEK 293F cell culture at 1.3×10^6 cell/ml with virus (MOI=10) in the presence of 8 mM sodium butyrate. Infections were carried out at 37° C. for 48 hours, harvested by centrifugation, and stored at −80° C. for purification.
Column was washed with 500 mM NaCl in buffer A and Flag-CARM1-His was eluted with 200 ug/ml FLAG peptide in buffer A. Pooled fractions were dialyzed in 20 mM Tris, 150 mM NaCl, 5% glycerol and 1 mM DTT, pH 7.8. The purity of recovered protein was 94.
The assays were all performed in a buffer consisting of 20 mM Bicine (pH=7.6), 1 mM TCEP, 0.005% BSG, and 0.002% Tween 20, prepared on the day of use. Compounds in 100% DMSO (1 ul) were spotted into a polypropylene 384-well V-bottom plates (Greiner) using a Platemate Plus outfitted with a 384-channel head (Thermo Scientific). DMSO (1 ul) was added to Columns 11, 12, 23, 24, rows A-H for the maximum signal control and 1 ul of SAH, a known product and inhibitor of CARM1, was added to columns 11, 12, 23, 24, rows I—P for the minimum signal control. A cocktail (40 ul) containing the CARM1 enzyme was added by Multidrop Combi (Thermo-Fisher). The compounds were allowed to incubate with CARM1 for 30 min at room temperature, then a cocktail (10 ul) containing ^3H-SAM and peptide was added to initiate the reaction (final volume=51 ul). The final concentrations of the components were as follows: CARM1 was 0.25 nM, ^3H-SAM was 30 nM, peptide was 250 nM, SAH in the minimum signal control wells was 1 mM, and the DMSO concentration was 2%. The assays were stopped by the addition of non-radiolabeled SAM (10 ul) to a final concentration of 300 uM, which dilutes the ^3H-SAM to a level where its incorporation into the peptide substrate is no longer detectable. 50 ul of the reaction in the 384-well polypropylene plate was then transferred to a 384-well Flashplate and the biotinylated peptides were allowed to bind to the streptavidin surface for at least 1 hour before being washed once with 0.1% Tween20 in a Biotek ELx405 plate washer. The plates were then read in a PerkinElmer TopCount plate reader to measure the quantity of ^3H-labeled peptide bound to the Flashplate surface, measured as disintegrations per minute (dpm) or alternatively, referred to as counts per minute (cpm).
where dpm=disintegrations per minute, cmpd=signal in assay well, and min and max are the respective minimum and maximum signal controls. […]

Experiment [1] relates to asymmetric di-methyl PABP1 in RKO cells. The experiment is described as follows: RKO methylation assay (In Cell Western for asymmetric di-methyl PABP1). The experiment is classed as cell-based. Particulars: Homo sapiens, 48 hours incubation, read-out: Cellular IC50. In short, it runs like this: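 RKO cells treated 48 h at 37 °C, then fixed, methanol-permeabilized and probed for asymmetric di-methyl PABP1 (16 h, 4 °C) with DRAQ5 counterstain; 800/700 nm intensity ratio read.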

T1 sequence (Q86X55 other isoform, or with tags, fused parts or gaps): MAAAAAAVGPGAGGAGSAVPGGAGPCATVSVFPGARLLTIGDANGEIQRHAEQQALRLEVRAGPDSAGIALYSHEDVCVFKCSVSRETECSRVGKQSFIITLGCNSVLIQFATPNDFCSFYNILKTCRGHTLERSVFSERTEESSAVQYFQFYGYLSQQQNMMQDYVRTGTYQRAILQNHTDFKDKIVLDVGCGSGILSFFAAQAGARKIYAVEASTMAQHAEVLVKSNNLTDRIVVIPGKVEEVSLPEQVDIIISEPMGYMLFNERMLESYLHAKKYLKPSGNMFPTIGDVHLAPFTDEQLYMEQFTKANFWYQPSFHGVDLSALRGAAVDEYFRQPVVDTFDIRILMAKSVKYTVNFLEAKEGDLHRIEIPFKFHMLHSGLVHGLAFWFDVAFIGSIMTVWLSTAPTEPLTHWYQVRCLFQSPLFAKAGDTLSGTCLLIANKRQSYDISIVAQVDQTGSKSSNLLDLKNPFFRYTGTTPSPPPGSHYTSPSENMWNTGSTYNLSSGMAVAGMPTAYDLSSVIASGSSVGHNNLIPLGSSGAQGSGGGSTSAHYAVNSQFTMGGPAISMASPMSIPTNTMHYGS

The IC50 is the concentration needed to halve the response being measured. For the compound `CNCC(O)COc1cccc(-c2nc(NC3CCOC3)c3cnn(C(C)C)c3n2)c1` (stereo not drawn) [Example 10-5], the IC50 on Human CARM1 (PRMT4) is under 0.1 µM; in experiment [1], 10 to 20 µM.
Taken in the same sequence, the figures for `CNCC(O)COc1cccc(-c2cc(N[C@H]3CCOC3)n3ncc(C(C)C)c3n2)c1` (stereo partly drawn) [Example 10-6] were under 0.1 µM and over 20 µM.
For the compound `CC(C)c1cnn2c(N3CCOCC3)cc(-c3cccc(OC[C@H](O)CN)c3)nc12` [Example 10-8], the half-maximal inhibitory concentration (IC50) on Human CARM1 (PRMT4) is under 0.1 µM; in experiment [1], over 20 µM.
As to `CN(c1cc(-c2cccc(OCC(O)CN)c2)nc2c(C(C)(C)C)cnn12)C1CCOCC1` (stereo not drawn) [Example 10-9], the half-maximal inhibitory concentration (IC50) on Human CARM1 (PRMT4) was 0.1 to 1 µM; in experiment [1] it was over 20 µM.
On the same counts, the results for `CNCC(O)COc1cc(C#N)cc(-c2cc(NC3CCOCC3)c3cnn(C(C)C)c3n2)c1` (stereo not drawn) [Example 11-4] are 0.1 to 1 µM and over 20 µM.
As for `NCC(O)COc1cccc(-c2nc(NCc3cccnc3)c3cnn(C4CC4)c3n2)c1` (stereo not drawn) [Example 11-5], the 50% inhibitory concentration (IC50) on Human CARM1 (PRMT4) was 0.1 to 1 µM; in experiment [1] it was over 20 µM.
For the compound `CNCC(O)COc1cccc(-c2cc(N[C@@H]3CCOC3)n3ncc(C(C)C)c3n2)c1` (stereo partly drawn) [Example 11-6], the IC50 at Human CARM1 (PRMT4) is under 0.1 µM; in experiment [1], over 20 µM.
On the same counts, the results for `CC(C)c1cnn2c(N(C)C3CCOCC3)cc(-c3cccc(OCC(O)CN)c3)nc12` (stereo not drawn) [Example 11-8] are 0.1 to 1 µM and over 20 µM.
On the same counts, the results for `CNCC(O)COc1cccc(-c2cc(NC(=O)NC)c3cnn(C(C)C)c3n2)c1` (stereo not drawn) [Example 11-9] are 0.1 to 1 µM and over 20 µM.
Taken in the same sequence, the figures for `CNCC(O)COc1cc(-c2cc(N3CCOCC3)c3cnn(C(C)C)c3n2)cc(C2CC2)c1` (stereo not drawn) [Example 12-4] were 0.1 to 1 µM and over 20 µM.
For the compound `NCC(O)COc1cccc(-c2nc(NCc3ccncc3)c3cnn(C4CC4)c3n2)c1` (stereo not drawn) [Example 12-5], the IC50 on Human CARM1 (PRMT4) was 0.1 to 1 µM; in experiment [1] it was over 20 µM.
On the same counts, the results for `CNCC(O)COc1cccc(-c2cc(N(C)CCOC)n3ncc(C(C)C)c3n2)c1` (stereo not drawn) [Example 12-6] are under 0.1 µM and over 20 µM.
`CC(C)(C)c1cnn2c(NC3CCOCC3)cc(-c3cccc(OCC(O)CN)c3)nc12` (stereo not drawn) [Example 12-8]: the IC50 at Human CARM1 (PRMT4) is under 0.1 µM; in experiment [1], over 20 µM.
As to `CNCC(O)COc1cc(Cl)cc(-c2cc(N3C[C@H]4CC[C@@H](C3)O4)n3ncc(C(C)C)c3n2)c1` (stereo partly drawn) [Example 12-9], the half-inhibitory concentration (IC50) was 0.1 to 1 µM at Human CARM1 (PRMT4) and over 20 µM in experiment [1].
Regarding `CNCC(O)COc1cc(NC)cc(-c2cc(NC3CCOCC3)c3cnn(C(C)C)c3n2)c1` (stereo not drawn) [Example 13-4], the concentration for half-maximal inhibition (IC50) on Human CARM1 (PRMT4) was under 0.1 µM; in experiment [1] it was 10 to 20 µM.
As to `NCC(O)COc1cccc(-c2nc(NCc3ccccn3)c3cnn(C4CC4)c3n2)c1` (stereo not drawn) [Example 13-5], the IC50 on Human CARM1 (PRMT4) was 0.1 to 1 µM; in experiment [1], over 20 µM.
On to `CNCC(O)COc1cccc(-c2cc(N(C)[C@@H]3CCOC3)n3ncc(C(C)C)c3n2)c1` (stereo partly drawn) [Example 13-6], for which the IC50 was under 0.1 µM at Human CARM1 (PRMT4) and over 20 µM in experiment [1].
Taken in the same sequence, the figures for `COc1cc(OCC(O)CN)cc(-c2cc(N(C3CCOCC3)C3CC3)n3ncc(C(C)C)c3n2)c1` (stereo not drawn) [Example 13-8] were 0.1 to 1 µM and over 20 µM.
On the same counts, the results for `CC(C)n1ncc2c(N3CCOCC3)cc(-c3cccc(CCC(O)CN)c3)nc21` (stereo not drawn) [Example 13-9] are 0.1 to 1 µM and over 20 µM.
With `CNCC(O)COc1cc(OC)cc(-c2cc(NC3CCOCC3)c3cnn(C(C)C)c3n2)c1` (stereo not drawn) [Example 14-4], the values for the IC50 (at Human CARM1 (PRMT4); in experiment [1]) were under 0.1 µM and over 20 µM, respectively.
Taken in the same sequence, the figures for `Cn1ccc(CNc2nc(-c3cccc(OCC(O)CN)c3)nc3c2cnn3C2CC2)n1` (stereo not drawn) [Example 14-5] were 0.1 to 1 µM and over 20 µM.
Taken in the same sequence, the figures for `CCN(c1cc(-c2cc(OC)cc(OCC(O)CN)c2)nc2c(C(C)C)cnn12)C1CCOCC1` (stereo not drawn) [Example 14-8] were under 0.1 µM and over 20 µM.
On the same counts, the results for `CNCC(O)COc1cccc(-c2nc(NCc3cccc4ccnn34)c3cnn(C4CC4)c3n2)c1` (stereo not drawn) [Example 14-9] are 0.1 to 1 µM and over 20 µM.
For `Cc1cc(CNc2nc(-c3cccc(OCC(O)CN)c3)nc3c2cnn3C2CC2)no1` (stereo not drawn) [Example 15-5], the results for the IC50 (on Human CARM1 (PRMT4); in experiment [1]) were 0.1 to 1 µM and over 20 µM, respectively.
Taken in the same sequence, the figures for `C#Cc1cc(OCC(O)CNC)cc(-c2cc(N3CCOCC3)n3ncc(C(C)C)c3n2)c1` (stereo not drawn) [Example 15-6] were under 0.1 µM and over 20 µM.
Consider `CC(C)(C)c1cnn2c(NC3CCOCC3)cc(-c3cc(Cl)cc(OCC(O)CN)c3)nc12` (stereo not drawn) [Example 15-8], for which the half-inhibitory concentration (IC50) was 0.1 to 1 µM on Human CARM1 (PRMT4) and over 20 µM in experiment [1].
On the same counts, the results for `CNCC(O)COc1cc(-c2cc(NC3CCOCC3)c3cnn(C(C)C)c3n2)cc(C2CC2)c1` (stereo not drawn) [Example 16-4] are under 0.1 µM and over 20 µM.
On the same counts, the results for `NCC(O)COc1cccc(-c2nc(N3CC4CCC(C3)O4)c3cnn(C4CC4)c3n2)c1` (stereo not drawn) [Example 16-5] are under 0.1 µM and over 20 µM.
For the compound `CNCC(O)COc1cc(OC)cc(-c2cc(N3[C@@H]4CC[C@@H]3COC4)c3cnn(C(C)C)c3n2)c1` (stereo partly drawn) [Example 17-4], the values for the half-maximal inhibitory concentration (IC50) (on Human CARM1 (PRMT4); in experiment [1]) were under 0.1 µM and 10 to 20 µM, respectively.
Taken in the same sequence, the figures for `NCC(O)COc1cccc(-c2nc(N3C4CCC3COC4)c3cnn(C4CC4)c3n2)c1` (stereo not drawn) [Example 17-5] were under 0.1 µM and over 20 µM.
On the same counts, the results for `C=Cc1cc(OCC(O)CNC)cc(-c2cc(N3CCOCC3)n3ncc(C(C)C)c3n2)c1` (stereo not drawn) [Example 17-6] are 0.1 to 1 µM and over 20 µM.
On the same counts, the results for `CNCC(O)COc1cc(OC)cc(-c2cc(N3CCOCC3)n3ncc(C(=O)OC)c3n2)c1` (stereo not drawn) [Example 17-8] are under 0.1 µM and 10 to 20 µM.
For the compound `CNCC(O)COc1cccc(-c2nc(NCc3cccnc3)c3cnn(C4CC4)c3n2)c1` (stereo not drawn) [Example 17-9], the results for the IC50 (on Human CARM1 (PRMT4); in experiment [1]) were 0.1 to 1 µM and over 20 µM, respectively.
For `NCC(O)COc1cccc(-c2nc(NCc3nccs3)c3cnn(C4CC4)c3n2)c1` (stereo not drawn) [Example 18-5], the half-maximal inhibitory concentration (IC50) on Human CARM1 (PRMT4) is under 0.1 µM; in experiment [1], over 20 µM.
Taken in the same sequence, the figures for `CNCC(O)COc1cc(NC)cc(-c2cc(N(C)C3CCOCC3)c3cnn(C(C)C)c3n2)c1` (stereo not drawn) [Example 19-4] were under 0.1 µM and 5 to 10 µM.
On the same counts, the results for `CNCC(O)COc1cccc(-c2nc(NC3CCOCC3)c3cnn(C4CC4)c3n2)c1` (stereo not drawn) [Example 19-5] are 0.1 to 1 µM and over 20 µM.
On the same counts, the results for `CNCC(O)COc1cccc(-c2cc(NC3CCOCC3)n3ncc(C(C)(C)C)c3n2)c1` (stereo not drawn) [Example 19-6] are under 0.1 µM and over 20 µM.
As for `CNCC(O)COc1cccc(-c2nc(NCc3cc(C)on3)c3cnn(C4CC4)c3n2)c1` (stereo not drawn) [Example 19-9], the 50% inhibitory concentration (IC50) was 0.1 to 1 µM at Human CARM1 (PRMT4) and over 20 µM in experiment [1].
Taken in the same sequence, the figures for `CNCC(O)COc1cc(OC)cc(-c2cc(NC3CCOCC3)c3c(C)nn(C(C)C)c3n2)c1` (stereo not drawn) [Example 20-4] were under 0.1 µM and 10 to 20 µM.
